Source: US11952593B2, “Detection and treatment of daughter number variations in cancer cells” (PharmacoGenetics Limited, priority 2020, dated 2024)

What was measured:
[1] = tested on: A549 lung adenocarcinoma cells; assay: Time-lapse microscopy count of multi-daughter divisions (DNV frequency), A549; assay type: cell-based, human; settings: wogonin 50 μM, 5-FU 20 μM
Method: To investigate DNVs, the human HepG2 hepatocellular carcinoma, HeLa cervical adenocarcinoma, and A549 lung adenocarcinoma cell lines, as well as the non-cancerous RPE1 line of hTRET-immortalized retina epithelial cells, were obtained from the American Type Culture Collection (ATCC, Manassas, Va., USA) and cultivated in Dulbecco's Modified Eagle Medium (DMEM) supplemented with 10% fetal bovine serum (Gemini Bio-Products, Sacramento. Calif.) under a humidified atmosphere of 5% C02 at 37° C. After 24 hours, the old medium was replaced by acidic DMEM growth medium buffered by 15 mM 2-(N-morpholino)-ethanesulfonic acid.HCl (MES) at pH 6.4, neutral DMEM growth medium buffered by 15 mM 3-(N-morpholino)propanesulfonic acid.HCl (MOPS) at pH 7.4, alkaline growth medium buffered by 15 mM tris(hydroxymethyl)aminomethane.HCl (Tris) at pH 8.4, or neutral DMEM growth medium containing wogonin (50 μM) or 5-FU (20 μM). Using phase contrast microscopy, time-lapse photographs were recorded at different positions of the wells at 15-minute intervals for 24 hours using the Nikon ECLIPSE Ti Live Cell Imaging Observatory, enabling the count of P1 through P8 patterns at the end of Stage 2 of the DNV process (FIG. 1). All the images were photographed at 100× magnification. Altemately, using fluorescence microscopy, the cells were seeded into 12 well plates at 1×10^3 per well and stained with Hoechst 33342 ([…], Thermofisher) for 30 minutes in an incubator at 37° C. After 30 minutes, culture medium was replaced by various treatment media and placed under the Nikon ECLIPSE Ti Live Cell Imaging Observatory for 24 hours. For the HeLa, HepG2 and A549 cells, the various treatments were also extended to 5 days. Because the RPE1 cells yielded no DNVs after 24 hours of drug treatment, its treatment periods were not extended beyond 24 hours. All the cells were manually traced and quantified using the ImageJ software. DNV frequencies were estimated by dividing the total number of multi-daughter ([…]) divisions by the total number of cell divisions. Fluorescence staining and time-lapse microscopy were employed to differentiate between the bi-, tri-, tetra- and penta-daughter cell divisions, and to estimate the percentages of the P1 through P8 patterns in the final daughter cells generated by each of the DNV events. GraphPad Prism 5.0 software was employed for statistical analysis, and the results were presented as the mean. Significance was determined using the Student t-test (two-tailed, unpaired/unequal variances).

HeLa cells = assay: Daughter-cell subgroups P1 through P8 in mitoses with DNV, HeLa; assay type: cell-based, human; settings: 24 hours, wogonin 50 μM, 5-FU 20 μM
Text: “Daughter Number Variation” is a process that occurs during mitosis, where more than two daughter cells are produced per mitotic division. It is a two-stage process, wherein cell divisions of mono-nucleate, bi-nucleate, tri-nucleate and tetra-nucleate mother cells at Stage 1 produce subgroups of single mono-nucleate cells (herein referred to as P1), and subgroups containing one bi-nucleate cell and two mono-nucleate cells (herein referred to as P2). Stage 1 is followed by Stage 2, during which time some of the daughter cells from Stage 1 fuse to produce multi-nucleate cell subgroups, where the different subgroups differ with respect to the number of constituent cells and their nucleate status (herein referred to as P3 through P8). All the subgroups from a single DNV mitosis stay close to one another to form a distinct cluster when the cell culture is not overly dense with cells.
P1 subgroup cells are daughter mono-nucleate cells resulting from mitoses with DNV that have not undergone any post-mitotic cell fusion. P2 subgroup daughter cells are clusters of one bi-nucleate cell and two mono-nucleate cells, which also have not undergone any post-mitotic cell fusion during DNV, whereas each of the multi-nucleated subgroups contains at least one cell that is generated from post-mitotic fusions between the Stage 1 cells. P3 through P8 are daughter cell subgroups, which result from cell fusions during DNV, and wherein each subgroup includes at least one multinucleate cell.
By way of example and not of limitation, there is at least one multinucleate cell with two nuclei in P3 and P5, one multinucleate cell with three nuclei in P4 and P6, one multinucleate cell with four nuclei in P7, and one multinucleate cell with five nuclei in P8, sharing the same cytoplasm. More specifically, P3 cell subgroups are clusters of one multinucleate cell with two nuclei and one mononucleate cell, P4 cell subgroups are one multinucleate cell with three nuclei, P5 cell subgroups are clusters of either two multinucleate cells with two nuclei or one multinucleate cell with two nuclei and one binucleate cell, P6 cell subgroups are clusters of one multinucleate cell with three nuclei and one mononucleate cell, P7 cell subgroups are one multinucleate cell with four nuclei, and P8 cell subgroups are one multinucleate cell with five nuclei. P1 through P8 cell subgroups are depicted in detail in FIG. 2.
The counts of P1 and P2 subgroups of cancer cells are then used to obtain their proportions based on the total number of cell subgroups P1 through P8 that resulted from mitotic DNVs during the predetermined period of time. The proportions are typically expressed as percentages. The proportion of P1 subgroup of cells is calculated as (number of P1 subgroups)+(total number of daughter cell subgroups)×100%, and the proportion of (P1 and P2) subgroup is calculated as (number of P1 subgroups+number of P2 subgroups)+(total number of daughter cell subgroups)×100%. This can also be expressed as (number of P1 subgroups)+(total number of P1 through P8 subgroups)×100%, or (number of P1 subgroups+number of P2 subgroups)+(total number of P1 through P8 subgroups)×100%, respectively.
To investigate DNVs, the human HepG2 hepatocellular carcinoma, HeLa cervical adenocarcinoma, and A549 lung adenocarcinoma cell lines, as well as the non-cancerous RPE1 line of hTRET-immortalized retina epithelial cells, were obtained from the American Type Culture Collection (ATCC, Manassas, Va., USA) and cultivated in Dulbecco's Modified Eagle Medium (DMEM) supplemented with 10% fetal bovine serum (Gemini Bio-Products, Sacramento. Calif.) under a humidified atmosphere of 5% C02 at 37° C. […]

SMILES	Bi-daughter divisions, % of total divisions ([1]; A549, 24 hours)	Bi-daughter divisions, number ([1]; A549, 24 hours)	Sum of Multi-daughter Divisions, % of total mitotic divisions ([1]; A549, 24 hours)	Sum of Multi-daughter Divisions, number ([1]; A549, 24 hours)	Total number of observed divisions ([1]; A549, 24 hours)	Tri-daughter divisions, % of total divisions ([1]; A549, 24 hours)	Tri-daughter divisions, number ([1]; A549, 24 hours)	Bi-daughter divisions, % of total divisions ([1]; A549, 5 days)	Bi-daughter divisions, number ([1]; A549, 5 days)	Sum of Multi-daughter Divisions, % of total mitotic divisions ([1]; A549, 5 days)	Sum of Multi-daughter Divisions, number ([1]; A549, 5 days)	Tetra-daughter divisions, number ([1]; A549, 5 days)	Total Divisions ([1]; A549, 5 days)	Tri-daughter divisions, % of total divisions ([1]; A549, 5 days)	Tri-daughter divisions, number ([1]; A549, 5 days)	≥Tetra-daughter divisions, number ([1]; A549, 5 days)	Mitoses with DNV, number (HeLa cells)	P1 + P2 subgroups, number (HeLa cells)	P1 subgroups, number (HeLa cells)	P2 subgroups, % of all P1 through P8 subgroups (HeLa cells)	other results
COc1c(O)cc(O)c2c(=O)cc(-c3ccccc3)oc12 [Wogonin, wogonin]	99.6%	1986	0.3%	6	1992 (100)	0.30%	6	94.6%	230	5.3%	13	6	243 (100)	2.8%	7	0	31	19	16	(9.6) %	Sum of Multi-daughter Divisions, % of total mitotic divisions ([1]; A549, 24 hours, listed as wogonin): 0.30%; Tetra-daughter divisions, % of total divisions ([1]; A549, 5 days): 2.4%; P1 + P2 subgroups, % of all P1 through P8 subgroups (HeLa cells): (61.2) %; P1 subgroups, % of all P1 through P8 subgroups (HeLa cells): (51.6) %; P2 subgroups, number (HeLa cells): 3; P3 subgroups, % of all P1 through P8 subgroups (HeLa cells): (32.2) %; P3 subgroups, number (HeLa cells): 10; P4 subgroups, % of all P1 through P8 subgroups (HeLa cells): (6.4) %; P4 subgroups, number (HeLa cells): 2; P5 subgroups, number (HeLa cells): 0; P6 subgroups, number (HeLa cells): 0; P7 subgroups, number (HeLa cells): 0; P8 subgroups, number (HeLa cells): 0; P1 + P2 subgroups, % of all P1 through P8 subgroups (HeLa cells; listed as wogonin): 61.2%; P1 subgroups, % of all P1 through P8 subgroups (HeLa cells; listed as wogonin): 51.6%
O=c1[nH]cc(F)c(=O)[nH]1 [5-FU, 5-flurouracil]	99.9%	2205	0.13%	3	2208 (100)	0.13%	3	97%	259	3.0%	8	0	267 (100)	3%	8	0	13	12	10	(15.3) %	P2 subgroups, number (HeLa cells): 2; P3 subgroups, % of all P1 through P8 subgroups (HeLa cells): (7.6) %; P3 subgroups, number (HeLa cells): 1; P4 subgroups, number (HeLa cells): 0; P5 subgroups, number (HeLa cells): 0; P6 subgroups, number (HeLa cells): 0; P7 subgroups, number (HeLa cells): 0; P8 subgroups, number (HeLa cells): 0
